Experimental data taken from patent US20250344695A1, “METHOD FOR PEST CONTROL” (priority 2024, published 2025).
In brackets after ≈: the same amount, converted by molar mass.

Columns and labels:
[1] = system: confused flour beetle, Tribolium confusum; assay: chlorobenzene fumigation in 1.9-liter jars, confused flour beetle adults; format: in vivo; settings: 21° C.
Method: (§1) Example 1: Chlorobenzene fumigations were conducted for control of six insect species and one mite species and they were: rice weevil, Sitophilus oryzae (Coleoptera: Curculionidae), confused flour beetle, Tribolium confusum (Coleoptera: Tenebrionidae), navel orangeworm, Amyelois transitella (Lepidoptera: Pyralidae), spotted wing drosophila, Drosophila suzukii (Diptera: Drosophilidae), western flower thrips, Frankliniella occidentalis (Thysanoptera: Thripidae), eastern subterranean termite, Reticulitermes flavipes (Blattodea: Rhinotermitidae), and ham mite, Tyrophagus putrescentiae (Schrank) (Acarina: Acaridae) (FIG. 2). Most fumigations were conducted in 1.9-liter glass jars. Confused flour beetle and rice weevil were fumigated in 1.9-liter jars and in 60-liter chambers with corn. Navel orangeworm was fumigated in 21.8 L chambers modified from pressure cookers. […]
(§2) A filter paper disc was clipped on the port underneath the lid with a metal clip. […] Insect mortality was then scored. Chlorobenzene doses were recorded as microliter liquid per liter of chamber space (ul/l).
(§3) Confused flour beetle and rice weevil adults were collected separately in plastic vials from their prospective colonies. […] Chlorobenzene vapor concentrations were measured during fumigation using detector tubes. After fumigation, insects were kept at room temperature overnight before being scored for mortality. […]

[2] = system: rice weevil, Sitophilus oryzae; assay: chlorobenzene fumigation in 1.9-liter jars, rice weevil adults; format: in vivo; settings: 21° C.
Method: as §1, §2, §3

[3] = system: spotted wing drosophila, Drosophila suzukii; assay: chlorobenzene fumigation in 1.9-liter jars, spotted wing drosophila flies; format: in vivo; settings: 50 μl/l dose, 3 h at 21° C.
Method: (§4) Example 1: Chlorobenzene fumigations were conducted for control of six insect species and one mite species and they were: rice weevil, Sitophilus oryzae (Coleoptera: Curculionidae), confused flour beetle, Tribolium confusum (Coleoptera: Tenebrionidae), navel orangeworm, Amyelois transitella (Lepidoptera: Pyralidae), spotted wing drosophila, Drosophila suzukii (Diptera: Drosophilidae), western flower thrips, Frankliniella occidentalis (Thysanoptera: Thripidae), eastern subterranean termite, Reticulitermes flavipes (Blattodea: Rhinotermitidae), and ham mite, Tyrophagus putrescentiae (Schrank) (Acarina: Acaridae) (FIG. 2). Most fumigations were conducted in 1.9-liter glass jars. Confused flour beetle and rice weevil were fumigated in 1.9-liter jars and in 60-liter chambers with corn. Navel orangeworm was fumigated in 21.8 L chambers modified from pressure cookers.
Rice weevil and confused flour beetle were reared on pearled barley and wheat flour diet in jars, respectively. Western flower thrips were reared on lettuce plants in a greenhouse. Spotted wing drosophila was reared on an artificial diet in plastic cups. […]
A filter paper disc was clipped on the port underneath the lid with a metal clip. […] Insect mortality was then scored. Chlorobenzene doses were recorded as microliter liquid per liter of chamber space (ul/l). […]

[4] = system: western flower thrips, Frankliniella occidentalis; assay: chlorobenzene fumigation in 1.9-liter jars, western flower thrips larvae and adults; format: in vivo; settings: 24 h at 2° C.
Method: as §1, with “corn.” for “corn. Navel orangeworm was fumigated in 21.8 L chambers modified from pressure cookers.”
as §2
Larvae and adults of western flower thrips were collected from infested lettuce plants in small vials each containing a piece of lettuce leaf (ca 20/vial) and stored in a refrigerator to cool them down. […] Vapor concentrations of chlorobenzene were measured during fumigation. After fumigation, thrips were kept at 2° C. overnight before mortality was scored. […]

[5] = system: eastern subterranean termite, Reticulitermes flavipes; assay: chlorobenzene fumigation in 1.9-liter jars, eastern subterranean termite workers; format: in vivo; settings: 50 μl/l dose, 3 h at 21° C.
Method: as §4
Rice weevil and confused flour beetle were reared on pearled barley and wheat flour diet in jars, respectively. […]
as §2
Workers of eastern subterranean termites were obtained from a commercial source. […] After fumigation, vials with insects were held in an environmental chamber overnight before mortality was scored. […]

[6] = system: ham mite, Tyrophagus putrescentiae; assay: chlorobenzene fumigation in 1.9-liter jars, ham mites on dog food kibbles; format: in vivo; settings: 21° C., larvae and adults
Method: as §1, §2
Ham mites on infested dog food kibbles were fumigated with chlorobenzene at different doses for 24 and 48 h at 21° C. […] After fumigation, vials with ham mites were held at 21° C. overnight before mortality of larvae and adults was scored. […] Chlorobenzene vapor concentrations were measured during each fumigation. […]

confused flour beetle = assay: large-scale chlorobenzene fumigation of corn in a 60-liter chamber, confused flour beetle all life stages; format: in vivo, Tribolium confusum; settings: 24 h at 21° C.
Method: (§5) Procedure-Large-scale chlorobenzene fumigations of corn with confused flour beetle and rice weevil were conducted in a 60 L fumigation chamber. The chamber was modified from a 60 L diary pot with an added platform at bottom and a vertically positioned air blower to circulate air in the chamber (FIG. 3). A vial with filter paper was positioned near a port on the wall. A total of 20 kg corn was placed in 9 mesh bags. Confused flour beetle adults and other life stage in flour diet and rice weevil adults and other life stages in pearled barley were sealed in small plastic cages with mesh screens on top and bottom for air movement. One cage with confused four beetle culture medium with all life stages and one cage with all life stages of rice weevil were placed in each mesh bag. The bags were packed in the chamber in two layers. The last two containers with confused flour beetle and rice weevil respectively were placed on top of the corn bags. Ten cages for each species were set up to be fumigated. Five cages for each species were used as controls. The chamber was then placed in a fume hood. After the chamber was sealed, 30 ml chlorobenzene was injected into the vial in the chamber and the air blower was turned on to start a fumigation treatment. The fumigation treatment lasted 24 h at 21° C.
(§6) In each fumigation, chlorobenzene vapor concentrations were measured at 2, 4, 6, 9, 21,and 24 h of each treatment using chlorobenzene detector tubes. For each measurement, a 40 ml air sample from the headspace of the chamber was taken and diluted 50-fold in a 1.9 L glass jar. Then, chlorobenzene detectors with a range of 2-500 ppm were used to measure chlorobenzene concentrations. At the end of each fumigation, the lid of the fumigation chamber was removed, and the air blower was kept running for at least 2 h to ventilate the chamber. The corn bags were then removed and containers with insects were recovered. Insects together with diet from each cage were placed in a plastic vial. All adults were removed from each vial and mortality of adults was scored next day. All vials with diet containing other life stages were incubated at 25° C. in an environmental chamber to allow surviving immature individuals to develop and emerge as adults. The vials were checked weekly to count and remove emerged adults to assess mortality of immature stages until there was no adult emergence for two consecutive weeks. A total of three large-scale fumigation tests have been conducted.

rice weevil = assay: large-scale chlorobenzene fumigation of corn in a 60-liter chamber, rice weevil all life stages; format: in vivo, Sitophilus oryzae; settings: 24 h at 21° C.
Method: as §5, §6

[7] = system: navel orangeworm, Amyelois transitella; assay: 24 h chlorobenzene fumigation in 21.8-liter chambers, navel orangeworm eggs, larvae and pupae; format: in vivo; settings: 24 h at 21° C.; for Larvae Mortality (%) Mean ± SE: 2nd, 4th, 6th instar pooled
Method: Procedure-Navel orangeworm eggs, larvae, and pupae were fumigated with chlorobenzene for 24 h at 21° C. in 21.8L chambers modified from pressure cookers to determine effects on mortality. Each chamber has a fan to circulate air. A small container with a piece of filter affixed in it was positioned next to the fan in each chamber as a reservoir for chlorobenzene (FIG. 4). Egg sheet with eggs oviposited during the last 3 days was harvested and cut into small pieces each with about 50 eggs. One piece of egg sheet was placed in a small 49 ml plastic vial and sealed with a screened lid. Larvae of three different ages (2nd, 4th, and 6th) were set up separately in 157 ml plastic vials each containing 3 g diet (10/vial). The vial was sealed with a screened lid. Three chlorobenzene does 50, 100, and 200 μl/l were tested in three chambers. They were achieved by adding 1, 2, and 4 ml of chlorobenzene in reservoirs in three fumigation chambers, respectively. Except for eggs that were only fumigated with chlorobenzene at 100 and 200 μl/l together with larvae and pupae, in each test, 5 vials of eggs, 9 vials of larvae (3 vials for each stage), and 3 vials of pupae were fumigated in one chamber. Controls were also set up for all life stages tested.
After chlorobenzene was added, the chamber was sealed and the fan was turned on to circulate air continuously for the 24 h duration of fumigation. Chlorobenzene detector tubes were used to measure chlorobenzene vapor concentrations 5-6 times between 2 h after start and before the end of fumigations. By the end of fumigation, all chlorobenzene liquid had vaporized in all three treatments. After fumigation, vials with larvae were held at 21° C. overnight before larval mortality was scored. For navel orangeworm eggs, diet was added in each vial and vials were incubated at 25° C. to allow all viable eggs to hatch. After over 10 days, neonate larvae were counted to estimate egg mortality. Pupae were also incubated at 25° C. in an environmental chamber to allow all viable pupae to develop into moths, and moths were then counted to determine pupal mortality. A total of three tests were conducted.

[8] = cited from earlier work
[9] = at 20° C.; cited from earlier work
[10] = air=1; cited from earlier work
[11] = cited from earlier work; remark: listed apart in the source
[12] = 100 μl/l dose (800 ppm vapor concentration), 48-h fumigation
[13] = 150 μl/l dose (1800 ppm vapor concentration), 24-h fumigation
[14] = 30 ml chlorobenzene in 60 L chamber with 20 kg corn
[15] = large-scale fumigations of corn, 60 L chamber

In the case of `Clc1ccccc1` [chlorobenzene], the “mortality of confused flour beetle adults” value [1, 12] is reported as 100%, the “mortality of confused flour beetle adults” value [1, 13] is reported as 100% and the “mortality of rice weevil adults” value [2, 12] is reported as 100%. For the same molecule, the “mortality of rice weevil adults” value [2, 13] was 100%, the “mortality of spotted wing drosophila flies” value [3] was 100% and the mortality at 370 ppm ([4]; 50 μl/l dose (about 370 ppm)) was 95.3%. For the same molecule, the mortality at 630 ppm ([4]; 75 μl/l dose (about 630 ppm)) was 100%, the “mortality of termite workers” value [5] was 100% and the mortality at 1700 ppm ([6]; 150 μl/l dose (about 1700 ppm), 48-h fumigation) was 99.9%. The mortality at 2000 ppm ([6]; 200 μl/l dose (about 2000 ppm), 24-h fumigation) was 100%, the “Adults Mortality (%)” value (confused flour beetle; [14]) was 100% and the “Immature stages Survived to adults” value (confused flour beetle; 30 ml chlorobenzene in 60 L chamber with 20 kg corn, adults emerged from 30 treatment vials) was 0. For the same molecule, the “Immature stages Relative mortality (%)” value (confused flour beetle; 30 ml chlorobenzene in 60 L chamber with 20 kg corn, relative to control by adults emerged) was 100%, the “control of adults and immature life stages of confused flour beetle” value (confused flour beetle; [15]) was “Complete control” and the “Adults Mortality (%)” value (rice weevil; [14]) was 100%. The “Immature stages Survived to adults” value (rice weevil; 30 ml chlorobenzene in 60 L chamber with 20 kg corn, adults emerged from 30 treatment vials (1645 from 15 control vials)) was 73, the “Immature stages Relative mortality (%)” value (rice weevil; 30 ml chlorobenzene in 60 L chamber with 20 kg corn, relative to control by adults emerged, assuming equal numbers of vials) was 97.8% and the “control of adults of rice weevil” value (rice weevil; [15]) was “complete control”. The “Pupae Mortality (%) Mean ± SE” value ([7]; 50 μl/l dose) was 7.4 ± 3.8%, the “Larvae Mortality (%) Mean ± SE” value ([7]; 50 μl/l dose) was 20.4 ± 3.6% and the “Pupae Mortality (%) Mean ± SE” value ([7]; 100 μl/l dose) was 20.4 ± 5.0%. For the same molecule, the “Larvae Mortality (%) Mean ± SE” value ([7]; 100 μl/l dose) was 69.1 ± 4.6%, the “Eggs Total neonates” value ([7]; 100 μl/l dose, 890 eggs (control 370 neonates of 887)) was 0 and the “Pupae Mortality (%) Mean ± SE” value ([7]; 200 μl/l dose) was 43.5%. For the same molecule, the “Larvae Mortality (%) Mean ± SE” value ([7]; 200 μl/l dose) was 95.9 ± 1.3%, the “Eggs Total neonates” value ([7]; 200 μl/l dose, 884 eggs (control 370 neonates of 887)) was 0 and the “effect on navel orangeworm eggs” value ([7]; both doses (100 and 200 μl/l)) was “All eggs were killed”. For the same molecule, the water solubility [8] was 466.3 µg/mL (≈ 4.14 mM), the vapor pressure [9] was 11.7 mmHg and the “vapor density relative to air” value [10] was 3.9. The OSHA exposure limit ([11]; 8-hour workday and 40-hour work week) was 75 ppm, the “oral and dermal toxicity” value ([11]; EPA category 4) was “very low” and the carcinogenicity ([11]; reported) was “non-carcinogenic”.
